Experimental data published in patent EP1914236A1 (Ortho-McNeil Pharmaceutical, Inc., priority 2002, dated 2003).

Legend:
[1] = Graded Abdominal Irritant Test (GrAIT); type: in vivo; conditions: po
Procedure: The Graded Abdominal Irritant Test (GrAIT) is a modification of the methods described by Koster et al. (Koster R., Anderson M and DeBeer E. J. Fed. Proc. 1959, 18, 412). Prior to the test (30 minutes for oral or subcutaneous administration), each animal was administered a known analgesic, a test compound, or vehicle (0.05N HCl) by one of two routes (oral or subcutaneous).
Kaolin (100 mg/kg) was injected intraperitoneally (using a standard 23G needle) at a volume of 10mL/kg of body weight. Following the administration of the chemical agent, the animals were placed in glass bell jars (approximately 15cm in diameter with wood chips on the bottom). […] A contraction of the abdominal musculature and an elongation of the body, which extends through to the hindlimbs, characterize this response. The responses were counted during the 15-minute time period after the injection of the kaolin. A mechanical counter or a personal computer was used to collect the number of counts per animal, and animals were observed no more than 5 at a time.
The mean number of counts (±SEM) for a group of animals receiving a known analgesic or test compound was compared to the mean for the group of animals which received only vehicle pretreatment (Control group). For each dose, % inhibition of the response was calculated. For each test compound, the EDso value was calculated using a log dose regression analysis program (PharmTools software).

[2] = target: T1, human B2 bradykinin receptors (Homo sapiens, UniProt P30411); experiment: Bradykinin B2 (BK2) Receptor Binding Assay; conditions: membranes of CHO-K1 cells transfected with human B2 bradykinin receptors; ~0.25 nM [3H]NPC17731; 60 min at 25°C
T1 construct: purchased Receptor Biology, Inc. (Baltimore, MD); host or cells: CHO-K1 cells transfected with the human B2 receptor (membranes)
T1 sequence (P30411 1-391): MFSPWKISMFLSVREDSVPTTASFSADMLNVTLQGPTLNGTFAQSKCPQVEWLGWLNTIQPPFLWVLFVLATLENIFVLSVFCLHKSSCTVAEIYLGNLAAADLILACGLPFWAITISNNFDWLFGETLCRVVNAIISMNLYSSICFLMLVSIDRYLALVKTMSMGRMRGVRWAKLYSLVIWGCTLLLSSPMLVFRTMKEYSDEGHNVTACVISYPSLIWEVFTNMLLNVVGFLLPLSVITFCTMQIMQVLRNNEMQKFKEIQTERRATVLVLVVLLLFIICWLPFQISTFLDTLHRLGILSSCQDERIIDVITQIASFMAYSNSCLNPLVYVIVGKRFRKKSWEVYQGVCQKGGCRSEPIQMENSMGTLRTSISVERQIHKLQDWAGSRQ
Method in brief: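 Membranes came from CHO-K1 cells expressing human B2 receptors; bound radioligand was collected by filtration and washed with cold 10 mM HEPES, pH 7.5. Single concentrations gave % inhibition of specific binding, and concentration ranges gave Ki values.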

CHO-hB2 cell membranes = target: T2, CHO-hB2 cell membranes (Homo sapiens, UniProt P30411); experiment: [35S]GTPγS Binding Assay in CHO-hB2 Cell Membranes; type: biochemical
T2 construct: purchased Receptor Biology, Inc. (Baltimore, MD); host or cells: CHO-hB2 cells (membranes)
T2 sequence (P30411 1-391): T1 sequence (P30411 1-391)
Procedure: CHO-hB2 cell membranes were purchased from Receptor Biology, Inc. (Baltimore,MD). 10 mg/mL of membrane protein was suspended in 10 mM TRIS-HC pH 7.2, 2 mM EDTA, 10% sucrose.
Membranes were added into 15 mL ice cold binding assay buffer. The assay buffer contained 50 mM HEPES, pH 7.6, 5 mM MgCl2, 100 mM NaCl, 1 mM DTT and 1 mM EDTA. The membrane suspension was homogenized twice with a Polytron and centrifuged at 3000 rpm for 10 min. The supernatant was then centrifuged at 18,000 rpm for 20 min. The pellet was saved in a tube and resuspended.
The pellet membranes (40 µg/mL) were preincubated with SPA (scintillation proximity assay) beads (20 mg/mL) at 25C° for 45 min in the assay buffer. The SPA beads (5 mg/mL) coupled with membranes (10 µg/mL) were then incubated with 0.5 nM [^35S]GTPγS in the same HEPES buffer containing 50 µM GDP in total volume of 200 µL. Bradykinin was used to stimulate [^35S]GTPγS binding. Varying concentrations of drugs were incubated with bradykinin to inhibit bradykinin-stimulated [^35S]GTPγS binding. The basal binding was tested in the absence of bradykinin and no specific binding was tested in the present 10 µM unlabeled GTPγS. The radioactivity was quantified on a Packard Top Count, and calculated. % of Basal = (stimulated binding-non specific binding)/(basal binding-non specific binding) × 100. [formula]

Cc1ccc2cccc(OCc3c(Cl)ccc(N(C)C(=O)CCc4ccc(C(=O)c5ccc(Cl)nc5)n4C)c3Cl)c2n1 [Compound 89]
% Inhibition ([1]; 30 minutes before kaolin (100 mg/kg intraperitoneally), responses counted for 15 minutes, dose not given): 98po % | ED50 ([1]; log dose regression analysis): 22.5 µmol/kg | Ki [2]: 57 nM | Functional Activity (% Basal) (CHO-hB2 cell membranes; number in parentheses, bradykinin-stimulated [35S]GTPγS binding, test concentration not given): 51 % Basal | Functional Activity (CHO-hB2 cell membranes; word part of the cell, effect on bradykinin-stimulated [35S]GTPγS binding): Antagonist
